Patent US20210308108A1, “ACTIVATING PYRUVATE KINASE R” (FORMA Therapeutics, Inc., priority 2018, published 2021)

What was measured:
Format in all cases: biochemical
wt-PKR [1] = biological target: T1, wt-PKR (Homo sapiens, UniProt P30613); assay: Enzyme assay, activation at different compound concentrations (rate of ATP formation); details: PEP concentrations at or below Km
PKR-R510Q [2] = biological target: T2, PKR-R510Q (Homo sapiens, UniProt P30613, R510Q); assay: as above; details: PEP concentrations at or below Km
T2 sequence (P30613 whole entry R510Q): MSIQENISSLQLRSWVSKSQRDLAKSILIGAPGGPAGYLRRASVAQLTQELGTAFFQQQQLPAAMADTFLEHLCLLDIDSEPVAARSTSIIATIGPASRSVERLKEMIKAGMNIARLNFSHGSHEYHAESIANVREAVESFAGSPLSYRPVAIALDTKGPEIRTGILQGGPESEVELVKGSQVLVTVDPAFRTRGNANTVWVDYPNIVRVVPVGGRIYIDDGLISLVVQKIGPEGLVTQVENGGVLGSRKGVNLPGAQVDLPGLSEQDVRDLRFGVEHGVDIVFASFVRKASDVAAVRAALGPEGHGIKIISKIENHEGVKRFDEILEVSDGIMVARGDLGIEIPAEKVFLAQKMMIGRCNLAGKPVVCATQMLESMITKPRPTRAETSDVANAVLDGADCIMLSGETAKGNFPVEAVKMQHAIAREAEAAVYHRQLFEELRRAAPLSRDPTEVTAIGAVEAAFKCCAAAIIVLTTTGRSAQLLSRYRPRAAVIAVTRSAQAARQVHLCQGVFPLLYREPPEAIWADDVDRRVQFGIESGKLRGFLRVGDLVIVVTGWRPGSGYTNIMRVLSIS

wt-PKR [3] = biological target: T1, wt-PKR; assay: Enzyme assay, kinetic parameters (Vmax, PEP Km)
Description: (§1) Tests were conducted in the presence and absence of fructose-1,6-bisphosphate (FBP), a known allosteric activator of PKR.

PKR-R510Q [4] = biological target: T2, PKR-R510Q; assay: Enzyme assay, kinetic parameters (Vmax, PEP Km)
Description: as §1

[5] = 2 μM Compound 1, in the presence or absence of FBP
[6] = 2 μM Compound 1, presence and absence of FBP

T1 sequence (P30613 whole entry): as the sequence (P30613 whole entry R510Q) above, with Q510R counted along it

Maximum-fold Activation (wt-PKR [1]): <2.0 fold | Maximum-fold Activation (PKR-R510Q [2]): <3.0 fold | reduction of PEP Km (wt-PKR [3]; [5]): ~2 fold | effect on Vmax (wt-PKR [3]; [6]): no effect to a modest increase | reduction of PEP Km (PKR-R510Q [4]; [5]): ~2 fold | effect on Vmax (PKR-R510Q [4]; [6]): no effect to a modest increase
Compound: O=C([C@H](CO)c1ccccc1)N1CC2=C(C1)CN(S(=O)(=O)c1cnc3c(c1)OCCO3)C2 (single isomer, unassigned) [Compound 1]
